Laboratory results published in ChEMBL document CHEMBL5393456, “Dichlorophenol hsd17b13 inhibitors and uses thereof” (2022).
pIC50: −log10 of the molar value.

Molecular target: T1, 17-beta-hydroxysteroid dehydrogenase 13 (Homo sapiens, UniProt Q7Z5P4)
T1 sequence (Q7Z5P4 whole entry): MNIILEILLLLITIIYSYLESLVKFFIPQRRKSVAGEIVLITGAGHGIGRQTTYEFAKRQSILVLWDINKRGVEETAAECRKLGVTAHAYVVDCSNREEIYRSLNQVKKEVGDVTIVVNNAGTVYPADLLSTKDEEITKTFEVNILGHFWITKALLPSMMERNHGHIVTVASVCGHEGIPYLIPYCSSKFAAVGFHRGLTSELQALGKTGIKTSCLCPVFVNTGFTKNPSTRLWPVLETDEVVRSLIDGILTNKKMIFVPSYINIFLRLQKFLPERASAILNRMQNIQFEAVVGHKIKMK
Test: Inhibition of His-tagged HSD17B13 (unknown origin) expressed in Escherichia coli using estradiol as substrate incubated for 2 hrs and measured by LC/MS estrone detection assay

SMILES	pIC50
Cc1ccc(NC(=O)c2cc(Cl)c(O)c(Cl)c2)c2c(=O)n(Cc3ccccc3OC(F)(F)F)c(C(F)F)nc12	≥ 7.00
Cc1ccc(NC(=O)c2cc(Cl)c(O)c(Cl)c2)c2c(=O)n(Cc3ccccc3C(F)(F)F)c(C(F)F)nc12	≥ 7.00
Cc1ccc(NC(=O)c2cc(Cl)c(O)c(Cl)c2)c2c(=O)n([C@@H]3CC[C@H]3c3ccccc3)c(C)nc12	≥ 7.00
O=C(Nc1cccc2ncn(Cc3cccnc3C(F)(F)F)c(=O)c12)c1cc(Cl)c(O)c(Cl)c1	≥ 7.00
Cc1nc2c(F)ccc(NC(=O)c3cc(Cl)c(O)c(Cl)n3)c2c(=O)n1Cc1ccccc1OC(F)(F)F	≥ 7.00
[2H]C([2H])([2H])c1nc2c(C)ccc(NC(=O)c3cc(Cl)c(O)c(Cl)c3)c2c(=O)n1Cc1ccccc1C(F)(F)F	≥ 7.00
Cc1ccc(NC(=O)c2cc(Cl)c(O)c(Cl)n2)c2c(=O)n(Cc3ccccc3OC(F)(F)F)c(C(F)F)nc12	≥ 7.00
O=C(Nc1ccc(F)c2ncn(Cc3ccccc3C(F)(F)F)c(=O)c12)c1cc(Cl)c(O)c(Cl)n1	≥ 7.00
O=C(Nc1cccc2ncn(Cc3cccc(C(F)(F)F)c3)c(=O)c12)c1cc(Cl)c(O)c(Cl)c1	≥ 7.00
O=C(Nc1cccc2ncn(Cc3ccccc3-c3ccccn3)c(=O)c12)c1cc(Cl)c(O)c(Cl)c1	≥ 6.30
[2H]C([2H])([2H])c1nc2c(C)ccc(NC(=O)c3cc(Cl)c(O)c(Cl)n3)c2c(=O)n1Cc1ccccc1OC(F)(F)F	≥ 7.00
O=C(Nc1cccc2ncn(C(c3ccccc3)c3ccccc3)c(=O)c12)c1cc(Cl)c(O)c(Cl)c1	≥ 7.00
O=C(Nc1cccc2ncn(Cc3ccccc3C(F)(F)F)c(=O)c12)c1cc(Cl)c(O)c(Cl)n1	≥ 7.00
Cc1nc2c(F)ccc(NC(=O)c3cc(Cl)c(O)c(Cl)c3)c2c(=O)n1Cc1ccccc1OC(F)(F)F	≥ 7.00
[2H]C([2H])([2H])c1nc2c(C)ccc(NC(=O)c3cc(Cl)c(O)c(Cl)c3)c2c(=O)n1Cc1ccccc1OC(F)(F)F	≥ 7.00
Cc1ccc(NC(=O)c2cc(Cl)c(O)c(Cl)c2)c2c(=O)n(Cc3ccccc3OC(F)(F)F)c(C)nc12	≥ 7.00
Cc1nc2c(F)ccc(NC(=O)c3cc(Cl)c(O)c(Cl)c3)c2c(=O)n1Cc1ncccc1C(F)(F)F	≥ 7.00
O=C(NCc1ccccc1OC(F)(F)F)C1CCCN1C(=O)c1cc(Cl)c(O)c(Cl)n1 (stereo not drawn)	< 5.00
Cc1ccc(NC(=O)c2cc(Cl)c(O)c(Cl)c2)c2c(=O)n(Cc3ccccc3OC(F)(F)F)cnc12	≥ 7.00
Cc1ccc(NC(=O)c2cc(Cl)c(O)c(Cl)c2)c2c(=O)n(Cc3ccccc3C(F)(F)F)c(CF)nc12	≥ 7.00
Cc1ccc(NC(=O)c2cc(Cl)c(O)c(Cl)c2)c2c(=O)n(Cc3ncccc3C(F)(F)F)c(C)nc12	≥ 7.00

SMILES	pIC50
Cc1ccc(NC(=O)c2cc(Cl)c(O)c(Cl)n2)c2c(=O)n(Cc3ccccc3OC(F)(F)F)c(C)nc12	≥ 7.00
O=C(Nc1cccc2ncn(Cc3ccccc3F)c(=O)c12)c1cc(Cl)c(O)c(Cl)n1	≥ 7.00
Cc1nc2cccc(NC(=O)c3cc(Cl)c(O)c(Cl)c3)c2c(=O)n1Cc1ccccc1OC(F)(F)F	≥ 7.00
O=C(Nc1ccc(F)c2ncn(Cc3ccccc3OC(F)(F)F)c(=O)c12)c1cc(Cl)c(O)c(Cl)c1	≥ 7.00
Cc1ccc(NC(=O)c2cc(Cl)c(O)c(Cl)c2)c2c(=O)n(Cc3ccccc3C(F)(F)F)c(C)nc12	≥ 7.00
O=C(Nc1cccc2ncn(C3(c4ccccc4F)CC3)c(=O)c12)c1cc(Cl)c(O)c(Cl)c1	≥ 7.00
Cn1c(=O)n(Cc2ccccc2OC(F)(F)F)c(=O)c2c(NC(=O)c3cc(Cl)c(O)c(Cl)c3)cccc21	≥ 7.00
O=C(Nc1cccc2ncn(Cc3ccccc3OC(F)(F)F)c(=O)c12)c1cc(Cl)c(O)c(Cl)c1	≥ 7.00
O=C(NCc1ccccc1OC(F)(F)F)C1CCCN1C(=O)c1cc(Cl)c(O)c(Cl)c1 (stereo not drawn)	< 5.00
O=C(Nc1cccc2ncn(Cc3cccc(OC(F)(F)F)c3)c(=O)c12)c1cc(Cl)c(O)c(Cl)c1	≥ 7.00
[2H]C([2H])(c1ccccc1C(F)(F)F)n1c(C)nc2c(C)ccc(NC(=O)c3cc(Cl)c(O)c(Cl)c3)c2c1=O	≥ 7.00
O=C(Nc1cccc2ncn(Cc3ccc(C(F)(F)F)cc3)c(=O)c12)c1cc(Cl)c(O)c(Cl)c1	≥ 7.00
Cc1nc2c(Cl)ccc(NC(=O)c3cc(Cl)c(O)c(Cl)c3)c2c(=O)n1Cc1ccccc1C(F)(F)F	≥ 7.00
O=C(Nc1ccc(Cl)c2ncn(Cc3ccccc3OC(F)(F)F)c(=O)c12)c1cc(Cl)c(O)c(Cl)c1	≥ 7.00
O=C(Nc1cccc2ncn(Cc3ccccc3N3CCOCC3)c(=O)c12)c1cc(Cl)c(O)c(Cl)c1	≥ 7.00
O=C(Nc1cccc2ncn(Cc3cccc(F)c3)c(=O)c12)c1cc(Cl)c(O)c(Cl)n1	≥ 7.00
C[C@@H](c1cccc(F)c1)n1cnc2cccc(NC(=O)c3cc(Cl)c(O)c(Cl)n3)c2c1=O	≥ 7.00
O=C(Nc1cccc2ncn(Cc3ccn(-c4ccccc4F)n3)c(=O)c12)c1cc(Cl)c(O)c(Cl)c1	≥ 7.00
O=C(Nc1ccc(F)c2ncn(Cc3ccccc3C(F)(F)F)c(=O)c12)c1cc(Cl)c(O)c(Cl)c1	≥ 7.00
Cc1nc2c(F)ccc(NC(=O)c3cc(Cl)c(O)c(Cl)c3)c2c(=O)n1Cc1ccccc1C(F)(F)F	≥ 7.00
O=C(N[C@H]1CCCC[C@@H]1C(=O)NCc1ccccc1OC(F)(F)F)c1cc(Cl)c(O)c(Cl)n1	< 5.00

The remaining lines, values ahead:

pIC50	SMILES
≥ 7.00	C[C@H](c1cccc(F)c1)n1cnc2cccc(NC(=O)c3cc(Cl)c(O)c(Cl)c3)c2c1=O
≥ 7.00	O=C(Nc1scnc1C(=O)NCc1ccccc1OC(F)(F)F)c1cc(Cl)c(O)c(Cl)c1
≥ 7.00	COc1ccccc1CCNC(=O)c1sccc1NC(=O)c1cc(Cl)c(O)c(Cl)c1
≥ 7.00	O=C(Nc1cc(Cl)sc1C(=O)NCc1ccccc1OC(F)(F)F)c1cc(Cl)c(O)c(Cl)c1
≥ 7.00	Cn1nc(CNC(=O)c2ncsc2NC(=O)c2cc(Cl)c(O)c(Cl)c2)c2ccccc21
≥ 7.00	O=C(Nc1scnc1C(=O)NCc1cccc(F)c1)c1cc(Cl)c(O)c(Cl)c1
≥ 7.00	O=C(Nc1scnc1C(=O)NCc1ccccc1OC(F)(F)F)c1cc(Cl)c(O)c(Cl)n1
< 5.00	NS(=O)(=O)c1ccccc1Cn1cnc2cccc(NC(=O)c3cc(Cl)c(O)c(Cl)c3)c2c1=O
≥ 7.00	O=C(Nc1cccc2ncn(Cc3n[nH]c4ccccc34)c(=O)c12)c1cc(Cl)c(O)c(Cl)c1
≥ 7.00	O=C(Nc1cccc2ncn(Cc3ncccc3Cl)c(=O)c12)c1cc(Cl)c(O)c(Cl)c1
≥ 7.00	O=C(Nc1scnc1C(=O)NCc1ccccc1C(F)(F)F)c1cc(Cl)c(O)c(Cl)c1
≥ 7.00	O=C(Nc1cccc2ncn(Cc3ncccc3C(F)(F)F)c(=O)c12)c1cc(Cl)c(O)c(Cl)c1
≥ 7.00	Cn1nc(Cn2cnc3cccc(NC(=O)c4cc(Cl)c(O)c(Cl)c4)c3c2=O)c2ccccc21
≥ 7.00	C[C@@H](c1cccc(F)c1)n1cnc2cccc(NC(=O)c3cc(Cl)c(O)c(Cl)c3)c2c1=O
≥ 6.30	O=C(Nc1cc(Cl)sc1C(=O)NCCc1ccccc1OC(F)(F)F)c1cc(Cl)c(O)c(Cl)c1
≥ 7.00	Cc1nc2c(F)ccc(NC(=O)c3cc(Cl)c(O)c(Cl)c3)c2c(=O)n1Cc1nn(C)c2ccccc12
≥ 7.00	O=C(Nc1cccc2ncn(Cc3ccccc3C(F)(F)F)c(=O)c12)c1cc(Cl)c(O)c(Cl)c1
< 5.00	CN(C)CCOc1ccc(NC(=O)c2cc(Cl)c(O)c(Cl)c2)c(C(=O)NCc2ccccc2OC(F)(F)F)c1
≥ 7.00	N#Cc1ccccc1Cn1cnc2cccc(NC(=O)c3cc(Cl)c(O)c(Cl)c3)c2c1=O
≥ 7.00	Cc1nc2nccc(NC(=O)c3cc(Cl)c(O)c(Cl)c3)c2c(=O)n1Cc1ccccc1OC(F)(F)F
≥ 7.00	Cc1nsc(NC(=O)c2cc(Cl)c(O)c(Cl)c2)c1C(=O)N[C@@H](C)c1ccccc1F
